“And” between values parts separate entries of the source, which are not always exact repeats. Equal entries are not always repeated.
Assays:
[1] = molecular target: T1, TRIM24 (Homo sapiens, UniProt O15164); assay: Liability panel screening by DSF: TRIM24; format: binding; conditions: DSF, 20 µM, n=2; read-out: Mean ΔTM TRIM24
T1 construct: This panel comprised ten highly ligandable kinases and bromodomains; made in house
T1 sequence (O15164 899-1004 limits assumed): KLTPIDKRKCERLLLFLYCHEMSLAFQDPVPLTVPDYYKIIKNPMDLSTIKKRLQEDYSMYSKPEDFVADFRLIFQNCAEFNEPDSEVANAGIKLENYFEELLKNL
Description: (§1) Reference ligands are listed in the methods section.
(§2) In-house produced recombinantly expressed proteins[62] of the liability panel targets were diluted in a buffer containing 10 mM HEPES (pH 7.5) and 500 mM NaCl to a concentration of 2 µM. SYPRO Orange (Invitrogen, Carlsbad, California, USA; #S6650) as a fluorescence probe was added at a 1:1000 dilution to the proteins. […] Temperature-dependent unfolding profiles were measured on a QuantStudio™ 5 real-time PCR machine (Thermo Fisher Scientific, Waltham, Massachusetts, USA; #A28140). […] The temperature was increased 3 °C per minute to a maximum temperature of 85 °C. Experiments were run as technical duplicates. […] Data were analyzed with the internal Thermal Shift Software (version 1.4, Thermo Fisher Scientific) using the Boltzmann equitation to determine the inflection point of the transition curve. Differences in melting temperature are given as ∆Tm in K. […]
(§3) scanning fluorimetry (DSF).
(§4) a concentration of 20 µM.

[2] = molecular target: T2, ABL1 (Homo sapiens, UniProt P00519); assay: Liability panel screening by DSF: ABL1; format: binding; conditions: DSF, 20 µM, n=2; read-out: Mean ΔTM ABL1
T2 construct: made in house
Description: as §1, §2, §3, §4

[3] = molecular target: T3, BRPF1 (Homo sapiens, UniProt P55201); assay: Liability panel screening by DSF: BRPF1; format: binding; conditions: DSF, 20 µM, n=2; read-out: Mean ΔTM BRPF1
T3 construct: This panel comprised ten highly ligandable kinases and bromodomains; made in house
T3 sequence (P55201 628-732 limits assumed): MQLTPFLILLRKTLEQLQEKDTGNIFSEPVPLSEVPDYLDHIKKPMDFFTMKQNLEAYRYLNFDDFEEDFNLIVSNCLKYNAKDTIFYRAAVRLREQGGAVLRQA
Description: as §1, §2, §3, §4

[4] = molecular target: T4, CSNK1D (Homo sapiens, UniProt P48730); assay: Liability panel screening by DSF: CSNK1D; format: binding; conditions: DSF, 20 µM, n=2; read-out: Mean ΔTM CSNK1D
T4 construct: made in house
Description: as §1, §2, §3, §4

[5] = molecular target: T5, MAPK1 (Homo sapiens, UniProt P28482); assay: Liability panel screening by DSF: MAPK1; format: binding; conditions: DSF, 20 µM, n=2; read-out: Mean ΔTM MAPK1
T5 construct: made in house
Description: as §1, §2, §3, §4

[6] = test system: HEK293T cells; assay: Cytotoxicity: metabolic activity (WST-8 / CCK-8 assay); conditions: 1 µM; HEK293T, 24 h; WST-8; normalized to 0.1% DMSO; single replicates
[7] = test system: NF-κB activity in HEK293 NF-κB reporter cells; assay: NF-kB activity assay (GFP reporter, ionomycin/PMA); format: cell-based; conditions: n=3
Description: Fig. 6 Application of the NR3 CG set.
After 24 h, cells were incubated with the test compounds solubilized with 0.1% DMSO in the same medium without puromycin. After 4 h incubation, ionomycin (100 ng/mL) and phorbol-12-myristat-13-acetate (PMA, 10 ng/mL) was added, and the cells were imaged for confluence and GFP expression every 90 min. over 24 h using a Tecan SPARK Cyto (Tecan). The number of GFP expressing cells was normalized to confluence in each sample. Each sample was repeated in three biologically independent experiments.

[8] = test system: HEK293T cells; assay: Cytotoxicity: apoptosis induction (caspase-3/7 DEVD fluorogenic DNA dye); conditions: 1 µM; HEK293T, 24 h; apoptotic cell count normalized to 0.1% DMSO; single replicates
[9] = molecular target: T6, CDK2 (Homo sapiens, UniProt P24941); assay: Liability panel screening by DSF: CDK2; format: binding; conditions: DSF, 20 µM, n=2; read-out: Mean ΔTM CDK2
T6 construct: made in house
Description: as §1, §2, §3, §4

[10] = molecular target: T7, AURKA (Homo sapiens, UniProt O14965); assay: Liability panel screening by DSF: AURKA; format: binding; conditions: DSF, 20 µM, n=2; read-out: Mean ΔTM AURKA
T7 construct: made in house
T7 sequence (O14965 1-403): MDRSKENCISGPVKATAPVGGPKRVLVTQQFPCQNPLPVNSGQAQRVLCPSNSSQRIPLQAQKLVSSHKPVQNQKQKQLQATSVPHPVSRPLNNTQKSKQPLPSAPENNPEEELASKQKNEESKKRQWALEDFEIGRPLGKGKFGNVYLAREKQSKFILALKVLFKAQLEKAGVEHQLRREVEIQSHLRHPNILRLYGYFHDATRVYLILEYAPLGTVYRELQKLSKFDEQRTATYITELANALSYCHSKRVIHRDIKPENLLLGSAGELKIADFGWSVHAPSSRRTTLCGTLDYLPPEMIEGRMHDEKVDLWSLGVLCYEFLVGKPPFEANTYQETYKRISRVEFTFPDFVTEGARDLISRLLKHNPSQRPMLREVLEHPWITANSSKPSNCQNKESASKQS
Description: as §1, §2, §3, §4

[11] = molecular target: T8, FGFR3 (Homo sapiens, UniProt P22607); assay: Liability panel screening by DSF: FGFR3; format: binding; conditions: DSF, 20 µM, n=2; read-out: Mean ΔTM FGFR3
T8 construct: made in house
Description: as §1, §2, §3, §4

[12] = molecular target: T9, BRD4 (Homo sapiens, UniProt O60885); assay: Liability panel screening by DSF: BRD4; format: binding; conditions: DSF, 20 µM, n=2; read-out: Mean ΔTM BRD4
T9 construct: This panel comprised ten highly ligandable kinases and bromodomains; made in house
Description: as §1, §2, §3, §4

[13] = molecular target: T10, GSK3B (Homo sapiens, UniProt P49841); assay: Liability panel screening by DSF: GSK3B; format: binding; conditions: DSF, 20 µM, n=2; read-out: Mean ΔTM GSK3B
T10 construct: made in house

[14] = test system: HEK293T cells; assay: Cytotoxicity: necrosis induction (red fluorescent dye for permeable plasma membranes); format: cell-based; conditions: 1 µM, 24 h, necrotic cell count normalized to 0.1% DMSO, single replicates;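 further: compounds applied in DMEM high glucose with 0.1% FCS and 0.1% DMSO, necrotic HEK293T cells counted by red staining of cells whose plasma membranes had become permeable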

T2 sequence (P00519 whole entry, species assumed): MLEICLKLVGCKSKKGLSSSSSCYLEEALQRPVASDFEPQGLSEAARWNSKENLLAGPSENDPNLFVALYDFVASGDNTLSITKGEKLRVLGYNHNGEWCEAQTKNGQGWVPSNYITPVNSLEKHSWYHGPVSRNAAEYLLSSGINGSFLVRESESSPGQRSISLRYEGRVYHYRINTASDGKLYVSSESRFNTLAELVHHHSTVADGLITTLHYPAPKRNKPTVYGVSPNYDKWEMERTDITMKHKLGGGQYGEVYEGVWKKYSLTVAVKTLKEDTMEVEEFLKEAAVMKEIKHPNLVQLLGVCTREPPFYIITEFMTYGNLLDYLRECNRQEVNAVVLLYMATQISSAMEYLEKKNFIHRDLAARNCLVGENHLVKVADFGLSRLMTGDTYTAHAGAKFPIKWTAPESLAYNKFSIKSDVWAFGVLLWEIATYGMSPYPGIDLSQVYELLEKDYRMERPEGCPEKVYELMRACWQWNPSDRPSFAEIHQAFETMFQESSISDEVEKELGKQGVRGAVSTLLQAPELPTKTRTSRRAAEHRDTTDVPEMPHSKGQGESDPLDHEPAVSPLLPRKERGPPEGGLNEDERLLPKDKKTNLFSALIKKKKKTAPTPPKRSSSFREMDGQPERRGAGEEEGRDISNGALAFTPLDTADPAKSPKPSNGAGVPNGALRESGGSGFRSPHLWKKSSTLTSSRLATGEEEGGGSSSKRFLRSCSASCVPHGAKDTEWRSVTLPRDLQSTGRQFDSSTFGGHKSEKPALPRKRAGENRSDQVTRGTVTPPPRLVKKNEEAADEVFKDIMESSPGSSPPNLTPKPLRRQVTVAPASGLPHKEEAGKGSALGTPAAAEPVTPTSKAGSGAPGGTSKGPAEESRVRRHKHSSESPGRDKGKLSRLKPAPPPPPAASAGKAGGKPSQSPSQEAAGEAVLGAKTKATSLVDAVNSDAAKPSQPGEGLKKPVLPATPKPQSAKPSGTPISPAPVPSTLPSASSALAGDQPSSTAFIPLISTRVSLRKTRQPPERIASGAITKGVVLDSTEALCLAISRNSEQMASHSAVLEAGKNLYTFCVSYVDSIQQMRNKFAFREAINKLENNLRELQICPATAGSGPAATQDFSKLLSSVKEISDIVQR
T4 sequence (P48730 whole entry, species assumed): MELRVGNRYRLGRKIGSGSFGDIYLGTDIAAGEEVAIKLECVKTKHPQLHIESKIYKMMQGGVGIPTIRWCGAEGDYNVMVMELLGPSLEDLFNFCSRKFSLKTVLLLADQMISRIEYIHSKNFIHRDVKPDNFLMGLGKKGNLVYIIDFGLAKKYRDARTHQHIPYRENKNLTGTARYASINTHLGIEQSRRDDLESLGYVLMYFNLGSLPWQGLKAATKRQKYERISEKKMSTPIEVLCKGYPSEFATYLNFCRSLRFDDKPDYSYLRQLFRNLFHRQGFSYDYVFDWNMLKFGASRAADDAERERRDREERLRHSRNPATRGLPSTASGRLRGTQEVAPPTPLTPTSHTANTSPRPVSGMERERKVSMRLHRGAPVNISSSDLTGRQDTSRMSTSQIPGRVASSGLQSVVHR
T8 sequence (P22607 23-806, species assumed): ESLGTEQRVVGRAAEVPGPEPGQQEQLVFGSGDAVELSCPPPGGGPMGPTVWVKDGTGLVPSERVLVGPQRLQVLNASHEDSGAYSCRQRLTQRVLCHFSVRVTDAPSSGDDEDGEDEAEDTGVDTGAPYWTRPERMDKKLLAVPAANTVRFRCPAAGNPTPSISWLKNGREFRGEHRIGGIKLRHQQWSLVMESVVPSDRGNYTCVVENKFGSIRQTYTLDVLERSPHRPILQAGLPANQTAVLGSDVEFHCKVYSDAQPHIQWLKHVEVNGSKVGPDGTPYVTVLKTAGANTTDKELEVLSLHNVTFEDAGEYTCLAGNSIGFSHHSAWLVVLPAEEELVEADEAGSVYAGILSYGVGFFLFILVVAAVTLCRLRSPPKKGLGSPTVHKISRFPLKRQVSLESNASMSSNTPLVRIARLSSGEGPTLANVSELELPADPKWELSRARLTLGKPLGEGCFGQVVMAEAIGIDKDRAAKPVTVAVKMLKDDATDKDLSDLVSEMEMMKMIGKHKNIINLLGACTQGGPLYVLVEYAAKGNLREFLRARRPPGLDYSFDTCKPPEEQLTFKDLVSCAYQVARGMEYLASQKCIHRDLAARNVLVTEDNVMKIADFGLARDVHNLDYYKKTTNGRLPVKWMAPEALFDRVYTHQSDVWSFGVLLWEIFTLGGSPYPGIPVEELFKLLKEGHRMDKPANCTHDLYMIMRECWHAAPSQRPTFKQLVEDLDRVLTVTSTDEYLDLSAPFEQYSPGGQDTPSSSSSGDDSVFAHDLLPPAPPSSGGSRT
T10 sequence (P49841 whole entry, species assumed): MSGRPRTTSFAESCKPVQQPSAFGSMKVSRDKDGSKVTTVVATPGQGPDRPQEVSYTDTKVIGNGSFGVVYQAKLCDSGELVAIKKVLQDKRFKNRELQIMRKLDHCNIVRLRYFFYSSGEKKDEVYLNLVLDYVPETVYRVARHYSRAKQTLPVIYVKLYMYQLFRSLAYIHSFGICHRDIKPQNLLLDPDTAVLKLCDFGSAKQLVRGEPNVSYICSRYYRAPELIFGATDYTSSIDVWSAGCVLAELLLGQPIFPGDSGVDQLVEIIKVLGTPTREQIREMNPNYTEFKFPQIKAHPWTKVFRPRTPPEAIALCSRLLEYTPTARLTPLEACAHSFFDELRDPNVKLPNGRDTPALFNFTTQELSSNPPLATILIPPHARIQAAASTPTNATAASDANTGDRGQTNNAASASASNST
T5 sequence (P28482 whole entry, species assumed): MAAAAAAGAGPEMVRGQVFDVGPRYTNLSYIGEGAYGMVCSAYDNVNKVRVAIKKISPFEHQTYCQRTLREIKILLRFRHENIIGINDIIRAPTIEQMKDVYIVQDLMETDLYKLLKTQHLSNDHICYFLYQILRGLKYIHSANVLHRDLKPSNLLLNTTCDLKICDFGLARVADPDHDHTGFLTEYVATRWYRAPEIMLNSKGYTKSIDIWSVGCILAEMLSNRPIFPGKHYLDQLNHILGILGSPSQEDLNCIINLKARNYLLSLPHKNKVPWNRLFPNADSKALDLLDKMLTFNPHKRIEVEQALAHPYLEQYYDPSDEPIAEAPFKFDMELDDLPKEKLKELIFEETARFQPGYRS

Cc1c(N2C(=O)C3C(O)CCN3C2=O)ccc(C#N)c1Cl (centres unmarked) [BMS564929]
ΔTm at 20 µM [1]: 0.44 °C | ΔTm at 20 µM [2]: 0.02 °C | ΔTm at 20 µM [3]: 0.06 °C | ΔTm at 20 µM [4]: -0.38 °C | ΔTm at 20 µM [5]: 0.12 °C | Metabolic activity [MA] [6]: 1.09 and 1.08 and 0.94 and 1.07 (2×) and 0.99 and 0.92 and 1.10 | Mean NFκB response ([7]; 1 µM, 1,5 h): 2292.65 GFP+-cells/confluence ∙ 1000 | Mean NFκB response ([7]; 1 µM, 4,5 h): 2993.37 GFP+-cells/confluence ∙ 1000 | Mean NFκB response ([7]; 1 µM, 7,5 h): 6319.46 GFP+-cells/confluence ∙ 1000 | Mean NFκB response ([7]; 1 µM, 10,5 h): 12250.00 GFP+-cells/confluence ∙ 1000 | Mean NFκB response ([7]; 1 µM, 13,5 h): 16870.00 GFP+-cells/confluence ∙ 1000 | Mean NFκB response ([7]; 1 µM, 16,6 h): 20913.33 GFP+-cells/confluence ∙ 1000 | Mean NFκB response ([7]; 1 µM, 19,5 h): 23700.00 GFP+-cells/confluence ∙ 1000 | Mean NFκB response ([7]; 1 µM, 22,5 h): 25766.67 GFP+-cells/confluence ∙ 1000 | Mean NFκB response ([7]; 1 µM, 3 h): 2425.99 GFP+-cells/confluence ∙ 1000 | Mean NFκB response ([7]; 1 µM, 6 h): 4160.27 GFP+-cells/confluence ∙ 1000 | Mean NFκB response ([7]; 1 µM, 9 h): 9390.00 GFP+-cells/confluence ∙ 1000 | Mean NFκB response ([7]; 1 µM, 12 h): 14670.00 GFP+-cells/confluence ∙ 1000 | Mean NFκB response ([7]; 1 µM, 15 h): 19226.67 GFP+-cells/confluence ∙ 1000 | Mean NFκB response ([7]; 1 µM, 18 h): 22263.33 GFP+-cells/confluence ∙ 1000 | Mean NFκB response ([7]; 1 µM, 21 h): 24826.67 GFP+-cells/confluence ∙ 1000 | Mean NFκB response ([7]; 1 µM, 24 h): 26713.33 GFP+-cells/confluence ∙ 1000 | Apoptosis induction [AI] [8]: 0.43 and 0.64 and 0.69 and 0.74 and 0.68 and 1.04 | ΔTm at 20 µM [9]: 0.04 °C | ΔTm at 20 µM [10]: -2.25 °C | ΔTm at 20 µM [11]: -0.04 °C | ΔTm at 20 µM [12]: -2.89 °C | ΔTm at 20 µM [13]: -0.71 °C | Necrosis induction [NI] [14]: 0.79 and 0.76 and 0.66 and 0.82

— publication PMC11790914, “Chemogenomics for steroid hormone receptors (NR3)” (Communications Chemistry, 2025)
